Laboratory results from ChEMBL document CHEMBL1150185, “Antineoplastic agents, 195. Isolation and structure of aceratioside from Aceratium megalospermum” (1990).
Converted amounts (≈) assume the structure as drawn.

Tested on: P388
Assay: Cytostatic activity against mouse P388 cells
Assay type: functional
Conditions: read-out: ED50 (the source's name)

EC50: 9 µg/mL (≈ 24.3 µM)
Structure (SMILES): O=C(O)[C@H]1CCc2c(cc(O)cc2O[C@@H]2O[C@H](CO)[C@@H](O)[C@H](O)[C@H]2O)C1 [ACERATIOSIDE]
